Reference: US11040981B2, “Pyrrolotriazine compounds and methods of inhibiting TAM kinases” (Syros Pharmaceuticals, Inc., priority 2017, dated 2021)

Columns and labels:
[1] = target: T1, MERTK (Homo sapiens, UniProt Q12866); experiment: TR-FRET kinase activity assay, MERTK; type: biochemical; conditions: for IC50: TR-FRET activity assay, ATP at Km, 60 minutes, read-out: Mer IC50; for FLT3/Mer ratio (FLT3 IC50/Mer IC50): ratio of Mer to FLT3: FLT3 IC50/Mer IC50
T1 sequence (Q12866 21-999): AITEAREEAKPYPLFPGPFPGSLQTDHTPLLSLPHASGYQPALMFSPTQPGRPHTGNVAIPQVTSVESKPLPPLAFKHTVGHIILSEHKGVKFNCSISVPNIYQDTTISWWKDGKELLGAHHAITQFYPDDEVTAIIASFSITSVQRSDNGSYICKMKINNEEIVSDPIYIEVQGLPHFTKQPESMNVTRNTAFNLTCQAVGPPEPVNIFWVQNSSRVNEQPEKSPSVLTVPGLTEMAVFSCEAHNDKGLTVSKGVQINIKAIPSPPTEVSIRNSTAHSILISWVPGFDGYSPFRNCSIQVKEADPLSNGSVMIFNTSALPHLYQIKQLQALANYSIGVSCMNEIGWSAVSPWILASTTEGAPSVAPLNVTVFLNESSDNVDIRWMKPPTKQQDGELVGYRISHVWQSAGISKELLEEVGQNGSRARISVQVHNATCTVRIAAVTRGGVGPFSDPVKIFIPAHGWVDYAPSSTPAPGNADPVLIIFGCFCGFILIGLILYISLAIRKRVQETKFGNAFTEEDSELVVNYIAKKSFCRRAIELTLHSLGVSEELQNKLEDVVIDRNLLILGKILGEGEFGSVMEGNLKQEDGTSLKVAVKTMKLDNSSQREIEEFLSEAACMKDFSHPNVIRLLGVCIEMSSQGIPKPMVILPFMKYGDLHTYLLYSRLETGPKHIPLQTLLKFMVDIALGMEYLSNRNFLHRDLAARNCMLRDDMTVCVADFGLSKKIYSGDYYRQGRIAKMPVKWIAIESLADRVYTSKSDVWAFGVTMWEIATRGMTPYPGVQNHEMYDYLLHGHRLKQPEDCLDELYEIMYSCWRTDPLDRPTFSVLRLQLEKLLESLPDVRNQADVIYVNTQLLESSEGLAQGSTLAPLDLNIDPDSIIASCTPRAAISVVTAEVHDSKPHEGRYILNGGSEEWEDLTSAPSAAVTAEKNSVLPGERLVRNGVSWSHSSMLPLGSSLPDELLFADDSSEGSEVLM
Procedure, shortened: (§1)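 Enzyme, fluorescent peptide substrate and compound were mixed, and the reaction was started with ATP at each kinase's Km, in 50 mM HEPES pH 7.5, 10 mM MgCl2, 1 mM EGTA, 0.01% Brij 35, 1 mM DTT at RT. After 60 minutes EDTA quench, Eu-labelled phospho-specific antibody was added for 30 minutes, and IC50 was derived from TR-FRET signal loss.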

[2] = target: T2, TYRO3 (Homo sapiens, UniProt Q06418); experiment: TR-FRET kinase activity assay, TYRO3; type: biochemical; conditions: ATP at Km, 60 minutes
T2 sequence (Q06418 41-890): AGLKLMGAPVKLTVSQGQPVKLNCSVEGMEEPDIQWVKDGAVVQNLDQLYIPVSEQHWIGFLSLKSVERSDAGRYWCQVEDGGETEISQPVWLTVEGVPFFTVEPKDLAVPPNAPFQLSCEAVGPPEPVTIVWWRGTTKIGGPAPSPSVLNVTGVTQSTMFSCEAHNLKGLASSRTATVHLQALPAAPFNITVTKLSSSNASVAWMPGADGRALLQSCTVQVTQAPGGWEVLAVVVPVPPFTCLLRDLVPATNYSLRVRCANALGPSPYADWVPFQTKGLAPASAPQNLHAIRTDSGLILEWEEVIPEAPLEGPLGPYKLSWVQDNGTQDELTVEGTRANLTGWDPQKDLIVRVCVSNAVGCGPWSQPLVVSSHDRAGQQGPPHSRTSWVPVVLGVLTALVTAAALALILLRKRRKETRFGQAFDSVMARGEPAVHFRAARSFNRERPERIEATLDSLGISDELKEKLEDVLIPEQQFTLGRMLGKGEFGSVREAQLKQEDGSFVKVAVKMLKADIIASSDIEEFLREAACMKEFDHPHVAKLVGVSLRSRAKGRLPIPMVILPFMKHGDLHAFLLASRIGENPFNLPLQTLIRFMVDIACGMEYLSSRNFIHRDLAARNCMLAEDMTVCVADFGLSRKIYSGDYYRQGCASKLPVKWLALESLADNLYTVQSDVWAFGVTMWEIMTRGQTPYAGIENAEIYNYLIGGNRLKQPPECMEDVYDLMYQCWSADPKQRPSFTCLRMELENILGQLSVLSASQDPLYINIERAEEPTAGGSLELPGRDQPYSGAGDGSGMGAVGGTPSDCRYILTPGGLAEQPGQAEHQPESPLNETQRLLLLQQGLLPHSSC
Procedure, shortened: as §1

Row | IC50 [1] [µM] | FLT3/Mer ratio (FLT3 IC50/Mer IC50) [1] | IC50 [2] [µM] | Structure (SMILES)
1 | ≤ 0.1 | +++ (“+++” represents a ratio of >100) | ≤ 0.1 | COC[C@H](C)Nc1ncc2c(-c3cnn(Cc4cncc(C)n4)c3)cc([C@H]3CC[C@H](O)CC3)n2n1 [Compound 329]
2 | ≤ 0.1 | +++ (“+++” represents a ratio of >100) | ≤ 0.1 | COC[C@H](C)Nc1ncc2c(-c3ccc(S(C)(=O)=O)nc3)cc([C@H]3CC[C@H](O)CC3)n2n1 [Compound 279]
3 | ≤ 0.1 | +++ (“+++” represents a ratio of >100) | ≤ 0.1 | COC[C@H](C)Nc1ncc2c(-c3cnn(Cc4ccc(S(C)(=O)=O)cc4)c3)cc([C@H]3CC[C@H](O)CC3)n2n1 [Compound 314]
4 | ≤ 0.1 | +++ (“+++” represents a ratio of >100) | ≤ 0.1 | COC[C@H](C)Nc1ncc2c(-c3cnn(Cc4cc(C)nn4C)c3)cc([C@H]3CC[C@H](O)CC3)n2n1 [Compound 333]
5 | ≤ 0.1 | +++ (“+++” represents a ratio of >100) | ≤ 0.1 | CNC(=O)c1ncc(-c2cc([C@H]3CC[C@H](O)CC3)n3nc(N[C@@H](C)COC)ncc23)cn1 [Compound 334]
6 | ≤ 0.1 | +++ (“+++” represents a ratio of >100) | ≤ 0.1 | COC[C@H](C)Nc1ncc2c(-c3ccnc(NC(C)C)c3)cc([C@H]3CC[C@H](O)CC3)n2n1 [Compound 337]
7 | ≤ 0.1 | +++ (“+++” represents a ratio of >100) | ≤ 0.1 | COC[C@H](C)Nc1ncc2c(-c3cnn(C4CC(C(=O)OC)C4)c3)cc([C@H]3CC[C@H](O)CC3)n2n1 (stereo partly drawn) [Compound 330]
8 | ≤ 0.1 | +++ (“+++” represents a ratio of >100) | ≤ 0.1 | COC[C@H](C)Nc1ncc2c(-c3cc(C)nc(C)c3)cc([C@H]3CC[C@H](O)CC3)n2n1 [Compound 308]
9 | ≤ 0.1 | +++ (“+++” represents a ratio of >100) | ≤ 0.1 | COC[C@H](C)Nc1ncc2c(-c3cnn(C(C)(C)C(=O)O)c3)cc([C@H]3CC[C@H](O)CC3)n2n1 [Compound 284]
10 | ≤ 0.1 | +++ (“+++” represents a ratio of >100) | ≤ 0.1 | COC[C@H](C)Nc1ncc2c(-c3cnn(C4CCS(=O)(=O)CC4)c3)cc([C@H]3CC[C@H](O)CC3)n2n1 [Compound 323]
11 | ≤ 0.1 | +++ (“+++” represents a ratio of >100) | ≤ 0.1 | CNS(=O)(=O)c1cncc(-c2cc([C@H]3CC[C@H](O)CC3)n3nc(N[C@@H](C)COC)ncc23)c1 [Compound 272]
12 | ≤ 0.1 | +++ (“+++” represents a ratio of >100) | ≤ 0.1 | CNC(=O)c1ccc(-c2cc([C@H]3CC[C@H](O)CC3)n3nc(N[C@@H](C)COC)ncc23)cn1 [Compound 317]

The next lines start with the molecule.

Row | Structure (SMILES) | IC50 [1] [µM] | FLT3/Mer ratio (FLT3 IC50/Mer IC50) [1] | IC50 [2] [µM]
13 | COC[C@H](C)Nc1ncc2c(-c3cnn(C(C)(C)C(=O)N4CC5(COC5)C4)c3)cc([C@H]3CC[C@H](O)CC3)n2n1 [Compound 326] | ≤ 0.1 | +++ (“+++” represents a ratio of >100) | ≤ 0.1
14 | C[C@@H](CC(F)(F)F)Nc1ncc2c(-c3cncc(C(=O)O)c3)cc([C@H]3CC[C@H](O)CC3)n2n1 [Compound 298] | ≤ 0.1 | +++ (“+++” represents a ratio of >100) | ≤ 0.1
15 | COC[C@H](C)Nc1ncc2c(-c3cnn(C4CN(C(=O)C5(C(F)(F)F)CC5)C4)c3)cc([C@H]3CC[C@H](O)CC3)n2n1 [Compound 294] | ≤ 0.1 | +++ (“+++” represents a ratio of >100) | ≤ 0.1
16 | COC[C@H](C)Nc1ncc2c(-c3cnn(C(C)(C)C(=O)N4CCS(=O)(=O)CC4)c3)cc([C@H]3CC[C@H](O)CC3)n2n1 [Compound 331, 1-(1,1-dioxidothiomorpholino)-2-(4-(7-((trans)-4-hydroxycyclohexyl)-2-(((S)-1-methoxypropan-2-yl)amino)pyrrolo[2,1-f][1,2,4]triazin-5-yl)-1H-pyrazol-1-yl)-2-methylpropan-1-one] | ≤ 0.1 | +++ (“+++” represents a ratio of >100) | ≤ 0.1
17 | CCCCC[C@H](C)Nc1ncc2c(C3=CC[C@@H](C(=O)N4CCOCC4)CC3)cc([C@H]3CC[C@H](O)CC3)n2n1 [Compound 113] | ≤ 0.1 | ++ (“++” represents a ratio of between 10 and 100) | ≤ 0.1
18 | COC[C@H](C)Nc1ncc2c(-c3cnn(C(C)(C)C(=O)N4C[C@@H](C)O[C@@H](C)C4)c3)cc([C@H]3CC[C@H](O)CC3)n2n1 [Compound 320] | ≤ 0.1 | +++ (“+++” represents a ratio of >100) | ≤ 0.1
19 | COC[C@H](C)Nc1ncc2c(-c3ccnc(OC4CCCN(C)C4)c3)cc([C@H]3CC[C@H](O)CC3)n2n1 (stereo partly drawn) [Compound 341] | ≤ 0.1 | +++ (“+++” represents a ratio of >100) | ≤ 0.1
20 | CCCCC[C@H](C)Nc1ncc2c(N3CCC(N(C)C)CC3)cc(C3CCC(O)CC3)n2n1.Cl (stereo partly drawn) [Compound 115, 4-[5-[4-(dimethylamino)-1-piperidyl]-2-[[(1S)-1-methylhexyl]amino]pyrrolo[2,1-f][1,2,4]triazin-7-yl]cyclohexanol hydrochloride] | ≤ 0.1 | ++ (“++” represents a ratio of between 10 and 100) | 0.1 to 1
21 | CNC(=NC#N)N[C@H]1CC[C@H](c2cc(-c3ccc(CN4CCOCC4)cc3)c3cnc(N[C@@H](C)COC)nn32)CC1 [Compound 307] | ≤ 0.1 | +++ (“+++” represents a ratio of >100) | ≤ 0.1
22 | COC[C@H](C)Nc1ncc2c(-c3cnn(C(C)(C)C(=O)N4CCOCC4)c3)cc([C@H]3CC[C@H](O)CC3)n2n1 [Compound 282] | ≤ 0.1 | +++ (“+++” represents a ratio of >100) | ≤ 0.1
23 | C[C@@H](CC(F)(F)F)Nc1ncc2c(-c3cn[nH]c3)cc([C@H]3CC[C@H](O)CC3)n2n1 [Compound 276] | ≤ 0.1 | +++ (“+++” represents a ratio of >100) | ≤ 0.1
24 | CNC(=O)c1cncc(-c2cc([C@H]3CC[C@H](O)CC3)n3nc(N[C@@H](C)CC(F)(F)F)ncc23)c1 [Compound 304] | ≤ 0.1 | +++ (“+++” represents a ratio of >100) | ≤ 0.1
25 | CNS(=O)(=O)c1cncc(-c2cc([C@H]3CC[C@H](O)CC3)n3nc(N[C@@H](C)COC(F)F)ncc23)c1 [Compound 275] | ≤ 0.1 | +++ (“+++” represents a ratio of >100) | ≤ 0.1
26 | COC[C@H](C)Nc1ncc2c(-c3cnn(C(C)(C)C(=O)N4C[C@H]5CC[C@@H](C4)O5)c3)cc([C@H]3CC[C@H](O)CC3)n2n1 [Compound 327] | ≤ 0.1 | +++ (“+++” represents a ratio of >100) | ≤ 0.1
